Data on 13 molecules can be found in patent US20100204224A1, “AZACYCLIC COMPOUNDS AS INHIBITORS OF SENSORY NEURONE SPECIFIC SODIUM CHANNELS” (priority 2005, published 2010).

The structures appear in SMILES notation.

One assay deals with T1, human Nav1.8 (hNav1.8) ion channel (Homo sapiens, UniProt Q9Y5Y9).
T1 construct: expressed in transfected cells
T1 sequence (Q9Y5Y9 whole entry): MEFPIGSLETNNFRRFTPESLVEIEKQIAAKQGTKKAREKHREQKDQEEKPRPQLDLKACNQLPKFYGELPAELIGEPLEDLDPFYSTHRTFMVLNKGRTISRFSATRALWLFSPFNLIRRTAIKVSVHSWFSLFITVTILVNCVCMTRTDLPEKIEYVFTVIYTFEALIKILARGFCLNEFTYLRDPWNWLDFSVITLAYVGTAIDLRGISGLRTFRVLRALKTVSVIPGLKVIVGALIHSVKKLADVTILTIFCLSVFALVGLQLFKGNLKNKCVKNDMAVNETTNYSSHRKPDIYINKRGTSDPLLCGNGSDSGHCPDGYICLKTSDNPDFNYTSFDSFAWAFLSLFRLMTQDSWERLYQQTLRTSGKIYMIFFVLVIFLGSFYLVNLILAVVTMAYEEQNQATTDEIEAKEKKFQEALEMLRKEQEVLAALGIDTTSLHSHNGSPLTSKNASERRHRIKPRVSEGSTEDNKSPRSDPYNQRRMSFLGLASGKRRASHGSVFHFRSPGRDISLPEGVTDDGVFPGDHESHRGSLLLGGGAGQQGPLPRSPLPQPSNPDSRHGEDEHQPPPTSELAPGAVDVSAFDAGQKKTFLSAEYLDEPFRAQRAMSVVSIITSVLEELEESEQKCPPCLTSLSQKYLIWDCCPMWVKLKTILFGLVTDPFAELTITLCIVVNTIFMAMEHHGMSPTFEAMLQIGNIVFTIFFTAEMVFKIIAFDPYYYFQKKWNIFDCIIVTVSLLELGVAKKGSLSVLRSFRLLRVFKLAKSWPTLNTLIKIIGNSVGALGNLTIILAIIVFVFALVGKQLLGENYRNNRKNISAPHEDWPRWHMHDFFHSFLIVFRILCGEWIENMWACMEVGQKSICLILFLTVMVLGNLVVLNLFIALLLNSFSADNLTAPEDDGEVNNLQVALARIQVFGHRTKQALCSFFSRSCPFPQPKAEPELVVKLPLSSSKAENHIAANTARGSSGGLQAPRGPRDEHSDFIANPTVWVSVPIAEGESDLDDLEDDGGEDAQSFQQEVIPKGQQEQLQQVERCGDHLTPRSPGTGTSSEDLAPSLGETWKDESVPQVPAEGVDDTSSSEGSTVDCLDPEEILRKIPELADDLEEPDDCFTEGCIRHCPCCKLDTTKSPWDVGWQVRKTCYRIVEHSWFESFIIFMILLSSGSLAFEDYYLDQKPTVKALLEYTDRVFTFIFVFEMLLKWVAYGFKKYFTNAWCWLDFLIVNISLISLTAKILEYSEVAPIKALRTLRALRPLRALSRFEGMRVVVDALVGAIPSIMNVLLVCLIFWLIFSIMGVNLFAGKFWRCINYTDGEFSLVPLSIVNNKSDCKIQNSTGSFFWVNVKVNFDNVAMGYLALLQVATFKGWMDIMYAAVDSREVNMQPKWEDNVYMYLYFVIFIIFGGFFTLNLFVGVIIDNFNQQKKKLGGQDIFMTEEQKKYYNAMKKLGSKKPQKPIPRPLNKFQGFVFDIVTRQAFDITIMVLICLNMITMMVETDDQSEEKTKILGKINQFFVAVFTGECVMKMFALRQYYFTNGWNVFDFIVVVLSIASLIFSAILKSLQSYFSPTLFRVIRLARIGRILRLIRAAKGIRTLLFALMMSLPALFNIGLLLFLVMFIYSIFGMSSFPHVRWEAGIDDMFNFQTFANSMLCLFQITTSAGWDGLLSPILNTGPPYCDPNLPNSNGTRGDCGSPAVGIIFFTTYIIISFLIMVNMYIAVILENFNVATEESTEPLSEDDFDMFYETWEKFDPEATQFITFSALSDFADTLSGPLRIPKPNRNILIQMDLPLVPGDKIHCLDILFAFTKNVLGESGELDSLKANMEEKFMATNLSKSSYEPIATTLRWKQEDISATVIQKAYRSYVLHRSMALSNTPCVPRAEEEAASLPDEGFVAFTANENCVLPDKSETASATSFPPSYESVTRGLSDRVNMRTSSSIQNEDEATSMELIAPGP
Briefly: Inhibition of human Nav1.8 stably expressed in SH-SY-5Y cells (membrane potential dye fluorescence assay). Format: cell-based. The settings on record: SH-SY-5Y hNav1.8 cells; FLIPR membrane potential dye; 10 μM pyrethroid, 250 nM TTX; test concentration range 100 μM-0.05 μM; read-out: hNav1.8 IC50.
For the molecule `CC(c1ccc(F)cc1)N1CC2CC1CN2C(=O)Nc1ccc(C(F)(F)F)cc1` (stereo not shown) [Example 53, 5-[1-(4-Fluoro-phenyl)-ethyl]-2,5-diaza-bicyclo[2.2.1]heptane-2-carboxylic acid (4-trifluoromethyl-phenyl)-amide], the IC50 turned out to be 2.5 µM.
For the molecule `O=C(Nc1ccc(C(F)(F)F)cc1)N1CC2CC1CN2C1Cc2ccccc2C1` (stereo not shown) [Example 99, 5-Indan-2-yl-2,5-diaza-bicyclo[2.2.1]heptane-2-carboxylic acid (4-trifluoromethyl-phenyl)-amide], the IC50 came out at 2.38 µM.
For `O=C(Nc1ccc(Cc2ccccc2)cc1)N1CC2CC1CN2C1Cc2ccc(F)cc2C1` (stereo not shown) [Example 124, 5-(5-Fluoro-indan-2-yl)-2,5-diaza-bicyclo[2.2.1]heptane-2-carboxylic acid (4-benzyl-phenyl)-amide], the 50% inhibitory concentration (IC50) amounted to 0.64 µM.
Regarding `CC(c1ccc(F)cc1Cl)N1CC2CC1CN2C(=O)Nc1ccc(Oc2ccccc2)cc1` (stereo not shown) [Example 7, 5-[1-(2-Chloro-4-fluoro-phenyl)-ethyl]-2,5-diaza-bicyclo[2.2.1]heptane-2-carboxylic acid (4-phenoxy-phenyl)-amide], the IC50 was found to be 4.32 µM.
For the molecule `CC(c1ccccc1C(F)(F)F)N1CC2CC1CN2C(=O)Nc1cccc(C(F)(F)F)c1` (stereo not shown) [Example 57, 5-[1-(2-Trifluoromethyl-phenyl)-ethyl]-2,5-diaza-bicyclo[2.2.1]heptane-2-carboxylic acid (3-trifluoromethyl-phenyl)-amide], the IC50 amounted to 5.13 µM.
In the case of `O=C(Nc1ccc(Oc2ccc(F)cc2)cc1)N1CC2CC1CN2C1Cc2ccccc2C1` (stereo not shown) [Example 106, 5-Indan-2-yl-2,5-diaza-bicyclo[2.2.1]heptane-2-carboxylic acid [4-(4-fluoro-phenoxy)-phenyl]-amide], the IC50 was 0.17 µM.
Regarding `CC(c1ccc(F)cc1)N1CC2CC1CN2C(=O)Nc1ccc(Oc2ccccc2)cc1` (stereo not shown) [Example 48, 5-[1-(4-Fluoro-phenyl)-ethyl]-2,5-diaza-bicyclo[2.2.1]heptane-2-carboxylic acid (4-phenoxy-phenyl)-amide], the IC50 stood at 0.42 µM.
On the same count and under the same terms, the result for `CC(c1ccccc1Cl)N1CC2CN(C(=O)Nc3ccc(Oc4ccc(F)cc4)cc3)CC2C1` (stereo not shown) [Example 107, 5-[1-(2-Chloro-phenyl)-ethyl]-hexahydro-pyrrolo[3,4-c]pyrrole-2-carboxylic acid [4-(4-fluoro-phenoxy)-phenyl]-amide] reads 1.13 µM.
Regarding `CC(c1c(F)cccc1Cl)N1CC2CC1CN2C(=O)c1ccc(Oc2ccc(F)cc2)cc1` (stereo not shown) [Example 168, {5-[1-(2-Chloro-6-fluoro-phenyl)-ethyl]-2,5-diaza-bicyclo[2.2.1]hept-2-yl}-[4-(4-fluoro-phenoxy)-phenyl]-methanone], the IC50 came to 1.7 µM.
For the molecule `CC(c1ccccc1Cl)N1CC2CC1CN2C(=O)Nc1ccc(Oc2cccc(F)c2)cc1` (stereo not shown) [Example 108, 5-[1-(2-Chloro-phenyl)-ethyl]-2,5-diaza-bicyclo[2.2.1]heptane-2-carboxylic acid [4-(3-fluoro-phenoxy)-phenyl]-amide], the IC50 was 0.6 µM.
With `Cc1ccccc1CC(C)N1CC2CC1CN2C(=O)Nc1ccc(Oc2ccccc2)cc1` (stereo not shown) [Example 58, 5-(1-Methyl-2-o-tolyl-ethyl)-2,5-diaza-bicyclo[2.2.1]heptane-2-carboxylic acid (4-phenoxy-phenyl)-amide], the IC50 is 0.23 µM.

The same assay, now with this note: hNav1.8 IC50, SH-SY-5Y hNav1.8 cells; FLIPR membrane potential dye; 10 μM pyrethroid, 250 nM TTX; test concentration range 100 μM-0.05 μM.
Regarding `O=C(Cc1ccc(C(F)(F)F)cc1)N1CC2CC1CN2C1CCc2ccc(F)cc2C1` (stereo not shown) [Example 148, 1-[5-(7-Fluoro-1,2,3,4-tetrahydro-naphthalen-2-yl)-2,5-diaza-bicyclo[2.2.1]hept-2-yl]-2-(4-trifluoromethyl-phenyl)-ethanone], the IC50 is 2.39 µM.
`O=C(Cc1ccc(Oc2ccccc2)cc1)N1CC2CC1CN2C1Cc2ccc(F)cc2C1` (stereo not shown) [Example 134, 1-[5-(5-Fluoro-indan-2-yl)-2,5-diaza-bicyclo[2.2.1]hept-2-yl]-2-(4-phenoxy-phenyl)-ethanone]: the IC50 came to 1.6 µM.
